Measurements reported in patent US20260256772A1, “BENZOTHIAZOLE COMPOUND AND USE THEREOF” (NANJING REJU THERAPEUTICS, INC., priority 2022, published 2026).

Assays:
[1] = test system: senescent cells; experiment: Senescent cell killing, CellTiter-Glo cell viability; format: cell-based, human, mouse; conditions: activity of killing senescent cells; cell type not specified
Description: In this test example, human non-small cell lung cancer cell line (A549 cells), human embryonic lung fibroblast cell line (IMR90 cells), human retinal pigment epithelial cells (RPE cells), mouse chondrocytes, and mouse skin fibroblasts were selected. The above cells were induced by etoposide ([…]) to obtain their senescent cells. The effect of the target compounds on the viability of normal and senescent cells above was examined, thus assessing the specific killing effect of the compounds on senescent cells above.
Briefly, senescent and normal cells above were selected and plated separately (96-well plates). […] 2A to 2E.

[2] = Solubility test in pure water; format: physicochemical
Protocol: The following test protocol was used for the solubility tests of the compounds of the present invention:
1). The compounds to be tested were precisely weighed respectively, and formulated to a corresponding concentration (l mg/mL or 10 mg/mL) by adding a corresponding volume of pure water vortically shook for 1 minute every 3 minutes for 15 minutes to observe the dissolution, and then the dissolution was observed again after standing for 1 hour. 2). 0.2 mL of 1 mg/mL compound or sodium salt thereof was took, diluted to 0.1 mg/mL respectively by adding 1.8 mL water, vortically shook for 5 minutes to observe the dissolution, and then the dissolution was observed again after standing for 1 hour. 3). 1 mL of 1 mg/mL compound or sodium salt thereof was took, diluted to 0.5 mg/mL by adding 1 mL water, vortically shook for 5 minutes to observe the dissolution, and then the dissolution was observed again after standing for 1 hour.

[3] = test system: platelets; conditions: under in vivo conditions; cited from earlier work
[4] = cited from earlier work
[5] = rats; cited from earlier work
[6] = test system: platelets; experiment: Platelet toxicity test in mice (platelet count); format: in vivo; conditions: mice, 0.5 mg/kg single intraperitoneal injection, blood at 6 hours, FIG. 1
Protocol: In this test example, C57 mice were chosen to detect the effect of the target compounds on platelets.
7 to 8 weeks old […] mice were randomly divided into vehicle group and compound group. The test compound (0.5 mg/kg) or blank vehicle was administrated via single intraperitoneal injection. Blood was collected from the retroorbital venous plexus of the mice at 6 hours, and placed in a blood routine tube containing anticoagulant EDTA-K2. After shaking gently, the blood physiological indicators were measured using a hematology analyzer, with the platelet count as the target parameter for this platelet toxicity test.

Cc1c(-c2ccc(N3CCc4cccc(C(=O)Nc5nc6ccccc6s5)c4C3)nc2C(=O)O)cnn1CC12CC3CC(CC(C3)C1)C2 [Compound A-1331852]
IC50 [1]: 0.2 to 1 µM
During shaking ([2]; formulated concentration 0.10 mg/mL in pure water): Visible solute particles
During shaking ([2]; formulated concentration 1 mg/mL in pure water): Visible solute particles
platelet toxicity [3]: significant platelet toxicity
solubility in water [4]: low solubility in water
oral bioavailability [5]: about 11%
platelet toxicity (platelet count) [6]: severe platelet toxicity
